Source: patent US20250121068A1, “BIFUNCTIONAL MOLECULES AS PROTEASOME STIMULATORS FOR IMPROVED TARGETED PROTEIN DEGRADATION, AND THEIR USES AS TARGETED BOOSTING DEGRADERS (TARBODS)” (BOOSTER THERAPEUTICS GMBH, priority 2021, published 2025)

Legend:
a-synuclein = target: T1, a-synuclein (Homo sapiens, UniProt P37840); test: a-synuclein degradation in HEK293 cells (western blot); format: cell-based; conditions: a-synuclein transfection 48 h, dosed 3 h at 25 μM with 50 μM cycloheximide, compared to DMSO and MO
T1 construct: expressed in transfected cells; host or cells: HEK293
Description: After a-synuclein transfection for 48 h, the compounds were dosed for 3 h at 25 μM together with 50 μM cycloheximide, and the total a-synuclein was determined using western blot. DMSO samples were used as control (dashed line).
FIGS. 2 to 4 show the results of the functional assay for the compounds of group I, FIG. 2 based on proteasome stimulation in vitro. The biochemical assay was performed with a purified human 20S proteasome. The compounds were incubated with 20S proteasomes for 1 h, and the proteasome activity was measured with a TAS-1 probe. DMSO samples were used as control. […] The inventive compounds are better stimulators than the activator alone (MO), especially when they have a longer linker, e.g. (PEG)4-5.

tau = tau degradation in HEK293 cells (western blot); format: cell-based; conditions: tau transfection 48 h, dosed 16 h at 25 μM with 30 μM cycloheximide, DMSO control
Description: After tau transfection for 48 h, the compounds were dosed for 16 h at 25 μM together with 30 μM cycloheximide, and total tau was determined (western blot). DMSO samples were used as control (dashed line).
The biochemical assay was performed with a purified human 20S proteasome. The compounds were incubated with 20S proteasomes for 1 h, and the proteasome activity was measured with a TAS-1 probe. DMSO samples were used as control (dashed line). The inventive compounds are better stimulators than the activator alone (MO), especially when they have a longer linker, e.g., (PEG)4-5. […] For proteasome activity in HEK293 cells, the compounds were dosed for 1.5 h, and the proteasome activity measured with Me4BodipyFLAhx3L3VS activity probe. DMSO samples were used as control (dashed line). […] Compounds were dosed for 24 h, and the viability measured with CellTiter-Glo. DMSO samples were used as control (dashed line). […] After tau transfection for 48 h, the compounds were dosed for 16 h at 25 μM together with 30 μM cycloheximide, and total tau was determined (western blot). DMSO samples were used as control (dashed line).

| SMILES | a-synuclein degradation (total a-synuclein) (a-synuclein) | tau degradation (total tau) (tau) |
| --- | --- | --- |
| CNc1ccc(-c2nc3ccc(OCCOCCNC(=O)c4ccc(COC(Cn5ccnc5)c5ccc(Cl)cc5Cl)cc4)cc3s2)cc1 (stereo not drawn) [DS001, 4-((1-(2,4-dichlorophenyl)-2-(1H-imidazol-1-yl)ethoxy)methyl)-N-(2-(2-((2-(4-(methylamino)phenyl)benzo[d]thiazol-6-yl)oxy)ethoxy)ethyl)benzamide] | clear improvement in degrading a-synuclein |  |
| O=C(CCc1ccc2c(c1)[nH]c1ccncc12)NCCOCCNC(=O)c1ccc(COC(Cn2ccnc2)c2ccc(Cl)cc2Cl)cc1 (stereo not drawn) [DT-001, N-(2-(2-(3-(5H-pyrido[4,3-b]indol-7-yl)propanamido)ethoxy)ethyl)-4-((1-(2,4-dichlorophenyl)-2-(1H-imidazol-1-yl)ethoxy)methyl)benzamide] |  | clear tau degradation improvement |
| CNc1ccc(-c2nc3ccc(OCCOCCOCCOCCNC(=O)c4ccc(COC(Cn5ccnc5)c5ccc(Cl)cc5Cl)cc4)cc3s2)cc1 (stereo not drawn) [DS003, 4-((1-(2,4-dichlorophenyl)-2-(1H-imidazol-1-yl)ethoxy)methyl)-N-(2-(2-(2-(2-((2-(4-(methylamino)phenyl)benzo[d]thiazol-6-yl)oxy)ethoxy)ethoxy)ethoxy)ethyl)benzamide] | clear improvement in degrading a-synuclein |  |
